# Where two headings read alike, the source gives them in different places.
# Key:
# [1] = system: isolated rat hearts; assay: Concentration-response of quinazoline compounds on left ventricle systolic pressure and heart rate of isolated rat hearts; settings: for increase in systolic pressure: according to basal absolute values of systolic pressure; for bradycardia response: decrease in heart rate compared to basal values; for Final heart rate: final value after infusions of increased concentrations; for Emax in the fractional pressor response: fractional values; for Initial heart rate: initial value before infusions of increased concentrations; for maximum pressor response (LVP): isolated rat hearts, infused concentrations 30 pM-2 μM
# From the text: Systolic pressure responses of the left ventricle were expressed as fractional values, while heart rate responses were expressed as absolute values. […] EC50: concentration of the drug that produces half of the maximum effect.
# [2] = system: myocardium of isolated rat hearts; assay: Adenosine dosage (HPLC) in the myocardium of isolated rat hearts
# From the text: We conducted adenosine dosages in the myocardium of isolated rat hearts with compounds 4d (Example 7) and 4i (Example 17). Chromatograms obtained through HPLC experiments in rat myocardium extracts for dosage of tissue adenosine and AMP are presented in FIG. 6.
# [3] = target: T1, cardiac adenosine kinase (Rattus norvegicus, UniProt Q64640); assay: HPLC adenosine kinase activity test with derivatized adenosine as substrate in myocardium extracts; type: biochemical; settings: fluorescence detection
# T1 construct: used as a substrate in myocardium extracts; from tissue; host or cells: rat myocardium (heart) extract
# [4] = system: isolated rat hearts; assay: Concentration-response in isolated heart with heart rate held constant by electrical stimulator; settings: heart rate held constant by electrical stimulator (FIG. 12)
# From the text: In order to confirm our hypothesis that pressor response of compound 4i depends on bradycardia and not on a direct action of 4i in the inotropism of isolated rat hearts, we conducted experiments where heart rate was held constant during infusion of increased concentrations of 4i (Example 17), through the action of an electrical stimulator. In FIG. 12 we represent the concentration-response relationship to 4i (Example 17) in isolated heart submitted to electrical stimulus.
# [5] = system: isolated hearts; assay: Isolated hearts perfused with propanolol, diltiazem or reduced calcium concentration; parameters: species or system rat; settings: propanolol or diltiazem blocking, or decreased calcium in perfusion buffer
# From the text: There was also a negative correlation between levels of ventricular pressure and heart rate in isolated hearts treated with increased doses of compound 4i (Example 17) in the presence of blockers like propanolol and diltiazem, and reduced concentrations of calcium in the perfusion buffer. In FIG. 11, we presented diagrams of the correlation between increase in systolic pressure and decrease in heart rate in isolated hearts submitted to injections (bolus) of 4i (Example 17) perfused with propanolol, diltiazem and with reduction of the calcium concentration in the perfusion buffer. Data are presented as mean±S.E.M.
# Results obtained with 4i (Example 17) and other quinazoline compounds point out that the main functional effect of these compounds on isolated rat hearts is bradycardia, and the pressor effect depends on bradycardia, and thus is a consequence of particularities of the preparation used (i.e., isolated heart) and not a direct effect. Because the bradycardia response was not altered by propanolol or diltiazem blocking, or even by decrease in calcium concentration in the perfusion buffer, our hypothesis is that this effect of quinazoline compounds depends on a direct effect of them on pacemaker cells, or even on an indirect effect through secretion of autocrine or paracrine compounds. […]
# [6] = system: isolated rat hearts; assay: Heart rate of isolated rat hearts perfused with HEPES buffer with 1 nM 4i with or without 8-PT
# Procedure: In FIG. 14, we present diagrams that represent heart rates of isolated rat hearts perfused with pure HEPES buffer (control), or HEPES buffer with 1 nM of 4i (Example 17), or HEPES buffer with 1 nM of 4i (Example 17) plus 1 μM of unspecific inhibitor of adenosine receptors, 8-PT (4i+8-PT). […] However, perfusion of hearts with 4i (Example 17) and 8-PT annulled bradycardia caused by 4i (Example 17), confirming our hypothesis that the quinazoline compound could be acting in a direct or indirect way on adenosine receptors. In Table 5, we present heart rate values (bpm) from individual experiments of isolated hearts perfused with pure HEPES buffer (control), HEPES buffer with 1 nM of 4i (Example 17), or HEPES buffer with 1 nM of 4i (Example 17) and […] of 8-PT (mean±S.E.M.).
# [7] = system: isolated hearts; assay: Concentration-effect experiments with adenosine with and without 8-PT in isolated hearts; parameters: species or system rat; settings: for EC50: Rattus norvegicus
# Procedure: In Table 3, we present values of Emax, EC50 (nM) and LogEC50 in the fractional pressor response to infusion of increased concentrations of adenosine in isolated hearts perfused with pure HEPES buffer, or with HEPES buffer with 8-PT (mean±S.E.M.).
# Both effects were altered by the action of the unspecific adenosine receptor inhibitor, 8-PT (1 μM), added to the perfusion buffer. According to results presented in FIG. 13, the increase in systolic pressure in response to infusion of increased concentrations of adenosine, both in control hearts as in those treated with the unspecific adenosine inhibitor, was almost the same. […] Concerning heart rate, the adenosine bradycardia effect was reduced when the inhibitor was present, showing a decrease of about 15% if compared to basal values of Table 4, where we present initial and final heart rate values (bpm) in the response to infusion of increased concentrations of adenosine in isolated hearts perfused with pure HEPES buffer and HEPES buffer with 8-PT (mean±S.E.M.).
# [8] = Rattus norvegicus, mean±S.E.M., given as negative log values, read-out: LogEC50 in the fractional pressor response (converted)
# [9] = Rattus norvegicus, mean±S.E.M., infusion of increased concentrations, read-out: EC50 in the fractional pressor response
# [10] = mean±S.E.M., infusion of increased concentrations, hydrochloride
# T1 sequence (Q64640 whole entry): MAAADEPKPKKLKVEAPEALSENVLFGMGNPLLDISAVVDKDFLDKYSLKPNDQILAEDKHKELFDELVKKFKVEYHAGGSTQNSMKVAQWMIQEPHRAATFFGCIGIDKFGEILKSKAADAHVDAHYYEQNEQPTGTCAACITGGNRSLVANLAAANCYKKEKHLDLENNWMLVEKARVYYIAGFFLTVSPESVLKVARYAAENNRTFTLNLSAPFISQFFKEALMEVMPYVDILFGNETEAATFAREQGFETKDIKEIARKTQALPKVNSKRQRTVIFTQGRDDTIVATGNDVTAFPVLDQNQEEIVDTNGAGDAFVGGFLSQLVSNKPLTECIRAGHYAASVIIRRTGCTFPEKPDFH
smiles,measurement,setting,value
COc1cc2ncnc(Nc3ccc(I)cc3)c2cc1OC.Cl,melting point,,266 to 269 °C
COc1cc2ncnc(Nc3ccc(C)cc3)c2cc1OC.Cl,melting point,,227 to 229 °C
COc1cc2ncnc(Nc3cccc(C(C)=O)c3)c2cc1OC.Cl,melting point,,219 to 221 °C
COc1cc2ncnc(Nc3ccc(C(C)=O)cc3)c2cc1OC.Cl,melting point,,218 to 220 °C
"COc1cc2ncnc(Cl)c2cc1OC [3a, 4-chloro-6,7-dimethoxyquinazoline]",EC50,[1]; [8],0.631 nM
same,EC50,[1]; [9],0.6 ± 0.5 nM
same,increase in systolic pressure,[1],~30%
same,bradycardia response,[1],~29%
same,Final heart rate,[1]; mean±S.E.M.,173 ± 1 bpm
same,Emax in the fractional pressor response,"[1]; mean±S.E.M., infusion of increased concentrations",0.6±0.2
same,Initial heart rate,[1]; mean±S.E.M.,242 ± 5 bpm
"COc1cc2ncnc(Nc3cccc(Br)c3)c2cc1OC.Cl [4d, 6,7-Dimethoxy-4-(3′-bromoanilino)quinazoline hydrochloride]",effect on amount of myocardial adenosine,[2]; chromatograms of rat myocardium extracts (FIG. 6),increased substantially
same,myocardial adenosine value,"[2]; hearts treated with compound, average, basal value 0.48",0.75 nmol/mg of protein
same,adenosine kinase inhibition,[3],adenosine kinase inhibitors
same,EC50,[1]; [8],6.31 nM
same,EC50,[1]; [9],6 ± 1.2 nM
same,increase in systolic pressure,[1],~14%
same,bradycardia response,[1],~25%
same,Final heart rate,[1]; mean±S.E.M.,164 ± 3 bpm
same,Emax in the fractional pressor response,[1]; [10],0.3±0.1
same,Initial heart rate,[1]; mean±S.E.M.,219 ± 12 bpm
same,maximum pressor response (LVP),[1],8±4 mmHg
"COc1cc2ncnc(Nc3cccc(N(C)C)c3)c2cc1OC.Cl [4i, 6,7-Dimethoxy-4-(3′-N′,N′-dimethylaminoanilino)quinazoline hydrochloride]",adenosine kinase inhibition,[3],adenosine kinase inhibitors
same,increase in systolic pressure,[1],approximately 35%
same,bradycardia response,[1],approximately 24%
same,Final heart rate,[1]; mean±S.E.M.,173 ± 8 bpm
same,Emax in the fractional pressor response,[1]; [10],0.9±0.2
same,Initial heart rate,[1]; mean±S.E.M.,228 ± 7 bpm
same,maximum pressor response (LVP),[1],27±3 mmHg
same,LogEC50 in the fractional pressor response,"[1]; mean±S.E.M., given as negative log values",−9.9 ± 0.3
same,EC50,"[1]; mean±S.E.M., infusion of increased concentrations, read-out: EC50 in the fractional pressor response",0.1 ± 0.03 nM
same,pressor response with heart rate controlled,[4],almost annulled
same,bradycardia response under blocking,[5],not altered
same,reduction of heart rate,"[6]; 1 nM 4i, compared to control hearts",approximately 17%
same,Heart Rate,"[6]; HEPES buffer with 1 nM 4i, control 233 ± 7",194 ± 7 bpm
"Nc1ncnc2c1ncn2[C@@H]1O[C@H](CO)[C@@H](O)[C@H]1O [Adenosine, adenosine]",increase in ventricular pressure,[7]; 1 μM adenosine (maximum response),16±2 mmHg
same,decrease in heart rate,"[7]; 8-PT (1 μM) present, compared to basal values",about 15%
same,EC50,"[7]; HEPES buffer with 8-PT (1 μM), read-out: EC50 pressor response",30 ± 19 nM
same,EC50,"[7]; pure HEPES buffer, given as negative log values, read-out: LogEC50 in the fractional pressor response (converted)",6.31 nM
same,EC50,"[7]; pure HEPES buffer, mean±S.E.M., read-out: EC50 pressor response",7 ± 1.4 nM
same,EC50,"[7]; pure HEPES buffer, read-out: EC50 bradycardia response",1.8 ± 1.4 nM
same,reduction in heart rate,"[7]; compared to absolute basal values, 1 μM adenosine (maximum response)",approximately 19%
same,Final heart rate,"[7]; pure HEPES buffer, final value after increased concentrations",185 ± 2 bpm
same,Initial heart rate,"[7]; pure HEPES buffer, initial value",228 ± 2 bpm
same,Emax in the fractional pressor response,"[7]; pure HEPES buffer, mean±S.E.M.",0.93 ± 0.05
